From patent publication US5707963A, “Methods of using growth inhibitory peptides” (Health Research, Incorporated, priority 1996, dated 1998)

What was measured:
[1] = tested on: estrogen-stimulated growth of mouse uterus; format: in vivo; conditions: immature mouse uterus, 10-100 ng per mouse, peak assay point of the dilution series
Protocol: An in vivo wet weight bioassay measuring inhibition of estrogen-stimulated growth of uteri was performed. The procedure of Mizejewski et al. was used for the wet weight assay (see Mizejewski, G. J. et al. (1983); Mizejewski, G. J. et al. (1986); Mizejewski, G. J. and A. S. Warner (1989); Mizejewski, G. J. et al., "Separation of the Estrogen-Activated Growth-Regulatory Forms of Alpha-Fetoprotein in Mouse Amniotic Fluid," Biol of Reprod 42:887-898 (1990); and Allen, S.H.G. et al. (1993)).
Briefly, the synthesized powdered peptide was reconstituted in saline (1 mg/ml) to form a stock solution of the GIP. The stock solution was appropriately diluted to provide dosages of 25 to 100 ng/mouse. 0.1 ml of the appropriately diluted GIP was injected intraperitoneally into 15-18 day old Nya:NYLAR female mice. Control mice were injected with saline or other peptides, including a peptide encoded by a portion of the amino acid sequence of albumin and a random 34 amino acid peptide. 1 hour after this first injection, an estrogen challenge of 0.5 micrograms of E2 in 0.1 ml saline was given to determine the change in uterine responsiveness to E2 resulting from exposure to the first injection. 23 hours after the second injection, uteri were dissected, trimmed free of connective tissue and immediately weighed. The uterine wet weights were normalized to mouse body weight (mg uterine weight/g of body weight) to compensate for differences in body weight among litters of the same age. Percent inhibition of estrogen-stimulated uterine growth was calculated as described by Mizejewski et al. (1983).
Two separate bioassays for inhibition of estrogen-stimulated growth were used. The first was an in vivo bioassay measuring an estrogen-induced increase in wet weight of the immature mouse uterus in a 24-hour determination. Dosages of peptide fragments ranged from 10 to 100 ng, and the %inhibition given in Table 6 represents the peak assay point of the dilution series.

[2] = transformed human AFP preparations
[3] = tested on: estrogen-stimulated growth of mouse uterus; conditions: full-length transformed AFP, see references cited; cited from earlier work

Molecule | Percent Growth Inhibition [1] | time activity is retained [2] | inhibition of estrogen-stimulated growth [3]
SEQ ID NO:7: 3' fragment generated by cutting SEQ ID NO:1 with trypsin; 5 amino acids in length (LSEDK) | no detectable growth inhibition | – | –
SEQ ID NO:5: 5' fragment generated by cutting the 34 amino acid peptide SEQ ID NO:1 with trypsin (HEMTPVNPGV) | 38% | – | –
full-length transformed AFP molecule: full-length alpha-fetoprotein transformed by incubation with estradiol (E2) (protein, UniProt P02771 19-609, looked up, transformed by estradiol incubation) Alpha-fetoprotein: RTLHRNEYGIASILDSYQCTAEISLADLATIFFAQFVQEATYKEVSKMVKDALTAIEKPTGDEQSSGCLENQLPAFLEELCHEKEILEKYGHSDCCSQSEEGRHNCFLAHKKPTPASIPLFQVPEPVTSCEAYEEDRETFMNKFIYEIARRHPFLYAPTILLWAARYDKIIPSCCKAENAVECFQTKAATVTKELRESSLLNQHACAVMKNFGTRTFQAITVTKLSQKFTKVNFTEIQKLVLDVAHVHEHCCRGDVLDCLQDGEKIMSYICSQQDTLSNKITECCKLTTLERGQCIIHAENDEKPEGLSPNLNRFLGDRDFNQFSSGEKNIFLASFVHEYSRRHPQLAVSVILRVAKGYQELLEKCFQTENPLECQDKGEEELQKYIQESQALAKRSCGLFQKLGEYYLQNAFLVAYTKKAPQLTSSELMAITRKMAATAATCCQLSEDKLLACGEGAADIIIGHLCIRHEMTPVNPGVGQCCTSSYANRRPCFSSLVVDETYVPPAFSDDKFIFHKDLCQAQGVALQTMKQEFLINLVKQKPQITEEQLEAVIADFSGLLEKCCQGQEQEVCFAEEGQKLISKTRAALGV | – | one week or less | 20-40%
